pIC50: −log10 of the molar value.

Among the data in BindingDB's records for patent US20230339915 (Vertex Pharmaceuticals, 2023) are IC50 values, retold here.

For this test, the target named is T1, Alpha-1-antitrypsin [E366K] (Homo sapiens, UniProt P01009, E366K).
T1 construct: gene SERPINA1
T1 sequence (P01009 25-418 E366K limits assumed): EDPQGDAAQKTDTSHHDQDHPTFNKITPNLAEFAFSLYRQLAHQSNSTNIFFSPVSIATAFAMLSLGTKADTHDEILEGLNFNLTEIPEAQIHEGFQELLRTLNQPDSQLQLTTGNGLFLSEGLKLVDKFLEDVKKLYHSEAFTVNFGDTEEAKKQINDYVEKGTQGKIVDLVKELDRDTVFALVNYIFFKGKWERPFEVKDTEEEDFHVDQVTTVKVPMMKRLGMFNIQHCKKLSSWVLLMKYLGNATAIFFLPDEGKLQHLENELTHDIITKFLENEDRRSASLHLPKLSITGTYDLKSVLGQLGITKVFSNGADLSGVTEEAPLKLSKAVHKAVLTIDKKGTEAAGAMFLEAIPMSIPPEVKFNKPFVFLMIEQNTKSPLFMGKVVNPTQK
Kind of test: Biochemical Assay (Z-AAT Elastase Activity Assay). On the procedure: Assay Protocol: Pre-Incubation of Z-AAT with Compounds1. 7.5 μL of Z-AAT (20 nM) was incubated with compounds 1-227 in a GCA plate for 1 hour at room temperature. Addition of hNE1. 7.5 ul of HNE solution (3 nM in PBS+0.01% BRIJ35) added into GCA plate2. Incubate plate for 30 minutes to allow Z-AAT/HNE suicide complex formation. Addition of Substrate and Read Plate on PE Envision1. 7.5 μL of substrate (300 μM solution of elastase substrate (ES V) in PBS+0.01% BRIJ35) dispensed per well into GCA plate2. Immediately read on Envision.
For the molecule `Cc1cc(-n2c(C(C)C)c(C3CC3(C)C(=O)O)c3cc(O)ccc32)ccc1F` (centres undefined) [US20230339915, Compound 130], the negative logarithm of the IC50 (pIC50) was less than 5.30.
In turn, `Cc1cc(-n2c(C(C)C)c([C@H]3C[C@@H]3C(=O)O)c3cc(O)c(F)cc32)ccc1F` [US20230339915, Compound 129] showed a pIC50 of less than 5.30.
In turn, `Cc1cc(-n2c(C(C)C)c(-c3ccc(C(=O)O)cc3C)c3cc(O)ccc32)ccc1F` [US20230339915, Compound 170] had a pIC50 of more than 5.70.
Next, `Cc1cc(-n2c(C(C)C)c(-c3ccc(C(=O)O)cc3)c3cc(O)ccc32)ccc1F` [US20230339915, Compound 167]: more than 5.70.
